pIC50: −log10 of the molar value. Activity calls are given as the source filed them. The rule behind the calls is not given here.
How the values were obtained:
A549 = experiment: cells; details: Homo sapiens, A549, 48 h
HT-29 [1] = experiment: Inhibition of colony formation in human HT-29 cells incubated for 14 days by crystal violet staining based analysis; assay type: functional, cell-based; details: dose 0.15-0.3 µM, time 14.0 day
HT-29 [2] = experiment: Effect on mitochondrial membrane potential in human HT-29 cells at 0.45 to 1.8 uM measured after 48 hrs by JC-1 staining based assay; assay type: functional, cell-based; details: dose 0.45-1.8 µM
Pyruvate kinase PKM [3] = biological target: T1, Pyruvate kinase PKM (Homo sapiens, UniProt P14618); experiment: Activation of PKM2 in human HT-29 cells assessed as increase in PKM2 tetramer formation at 0.6 to 1.2 uM after 48 hrs by Western blot analysis; assay type: cell-based; details: filed as activator, dose 0.6-1.2 µM
Target sequence in this assay (P14618 2-531 limits assumed): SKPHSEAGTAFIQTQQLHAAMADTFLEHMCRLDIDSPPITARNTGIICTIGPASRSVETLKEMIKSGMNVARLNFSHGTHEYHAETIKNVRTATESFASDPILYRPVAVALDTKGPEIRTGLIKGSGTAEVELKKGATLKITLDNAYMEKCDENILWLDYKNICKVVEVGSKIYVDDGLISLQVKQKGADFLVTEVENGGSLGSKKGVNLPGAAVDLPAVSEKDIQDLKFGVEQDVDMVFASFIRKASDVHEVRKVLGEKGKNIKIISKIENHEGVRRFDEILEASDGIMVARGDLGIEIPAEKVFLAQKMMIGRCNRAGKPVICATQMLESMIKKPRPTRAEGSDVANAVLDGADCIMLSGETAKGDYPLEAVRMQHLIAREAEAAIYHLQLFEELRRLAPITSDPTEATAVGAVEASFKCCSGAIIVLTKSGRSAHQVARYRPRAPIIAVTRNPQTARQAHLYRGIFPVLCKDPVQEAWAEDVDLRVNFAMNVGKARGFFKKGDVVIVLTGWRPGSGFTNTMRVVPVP

SW480 [4] = experiment: Antimigratory activity against human SW480 cells; assay type: functional, cell-based
HT-29 [5] = experiment: Induction of apoptosis in human HT-29 cells assessed as increase in cleaved caspase-3 expression at 0.45 to 1.8 uM after 48 hrs by Western blotting analysis; assay type: functional, cell-based; details: dose 0.45-1.8 µM
HT-29 [6] = experiment: Induction of apoptosis in human HT-29 cells assessed as decrease in PARP expression at 0.45 to 1.8 uM after 48 hrs by Western blotting analysis; assay type: functional, cell-based; details: dose 0.45-1.8 µM
HT-29 [7] = experiment: Induction of intracellular ROS production in human HT-29 cells at 0.45 to 1.8 uM incubated for 48 hrs by DCFH-DA staining based flow cytometry analysis; assay type: functional, cell-based; details: dose 0.45-1.8 µM
Pyruvate kinase PKM [8] = biological target: T1, Pyruvate kinase PKM; experiment: Inhibition of PKM2/STAT3 in human HT-29 cells assessed as decrease in total STAT3 level at 0.45 to 1.8 uM after 48 hrs by Western blot analysis; assay type: cell-based; details: dose 0.45-1.8 µM
Target sequence in this assay (P14618 2-531 limits assumed): as above

HT-29 [9] = experiment: Cytotoxicity against human HT-29 cells assessed as reduction in cell viability incubated for 48 hrs by MTT assay; assay type: functional, cell-based; details: HT-29, 48 h
HT-29 [10] = experiment: Inhibition of epithelial-mesenchymal transition in human HT-29 cells assessed as change in E-cadherin expression; assay type: functional, cell-based
Pyruvate kinase PKM [11] = biological target: T1, Pyruvate kinase PKM; experiment: Inhibition of PKM2/STAT3 in human HT-29 cells assessed as reduction in C-myc protein expression at 0.45 to 1.8 uM incubated for 48 hrs by Western blot analysis; assay type: cell-based; details: dose 0.45-1.8 µM
Target sequence in this assay (P14618 2-531 limits assumed): as above

Pyruvate kinase PKM [12] = biological target: Pyruvate kinase PKM (Homo sapiens, UniProt P14618, C424A); experiment: Activation of human PKM2-C424A expressed in Escherichia coli BL21 (DE3)
SW480 [13] = experiment: Induction of cell cycle arrest in human […] cells assessed as accumulation of cells at G2/M phase after 48 hrs by PI staining based flow cytometric analysis; assay type: functional; details: dose 0.2-0.6 µM
Pyruvate kinase PKM [14] = biological target: T1, Pyruvate kinase PKM; experiment: Binding affinity to recombinant human PKM2 assessed as covalent adduct formation incubated for 1 hr by LC-MS/MS analysis; details: filed as activator
Target sequence in this assay (P14618 2-531 limits assumed): as above

HT-29 [15] = experiment: Induction of apoptosis in PKM2 knock down human HT-29 cells at 0.45 to 1.8 uM; assay type: functional, cell-based; details: dose 0.45-1.8 µM
[16] = Toxicity in BALB/c mouse xenografted with human HT-29 cells assessed as decrease in body weight at 30 mg/kg, ip administered once every 2 days for 2 weeks and monitered every 2 days; assay type: organism-based; details: in vivo, 336 h
Pyruvate kinase PKM [17] = biological target: T1, Pyruvate kinase PKM; experiment: Activation of PKM2 in human HT-29 cells assessed as decrease in lactic acid production; assay type: cell-based; details: filed as activator
Target sequence in this assay (P14618 2-531 limits assumed): as above

Pyruvate kinase PKM [18] = biological target: T1, Pyruvate kinase PKM; experiment: Inhibition of PKM2/STAT3 in human HT-29 cells assessed as reduction in bcl-xl protein expression at 0.45 to 1.8 uM incubated for 48 hrs by Western blot analysis; assay type: cell-based; details: dose 0.45-1.8 µM
Target sequence in this assay (P14618 2-531 limits assumed): as above

Pyruvate kinase PKM [19] = biological target: T1, Pyruvate kinase PKM; experiment: Activation of PKM2 in human HT-29 cells assessed as decrease in extracellular acidification rate; assay type: cell-based; details: filed as activator
Pyruvate kinase PKM [20] = biological target: T1, Pyruvate kinase PKM; experiment: Activation of recombinant human PKM2 incubated 30 mins by fluorescence microplate reader analysis
Target sequence in this assay (P14618 whole entry): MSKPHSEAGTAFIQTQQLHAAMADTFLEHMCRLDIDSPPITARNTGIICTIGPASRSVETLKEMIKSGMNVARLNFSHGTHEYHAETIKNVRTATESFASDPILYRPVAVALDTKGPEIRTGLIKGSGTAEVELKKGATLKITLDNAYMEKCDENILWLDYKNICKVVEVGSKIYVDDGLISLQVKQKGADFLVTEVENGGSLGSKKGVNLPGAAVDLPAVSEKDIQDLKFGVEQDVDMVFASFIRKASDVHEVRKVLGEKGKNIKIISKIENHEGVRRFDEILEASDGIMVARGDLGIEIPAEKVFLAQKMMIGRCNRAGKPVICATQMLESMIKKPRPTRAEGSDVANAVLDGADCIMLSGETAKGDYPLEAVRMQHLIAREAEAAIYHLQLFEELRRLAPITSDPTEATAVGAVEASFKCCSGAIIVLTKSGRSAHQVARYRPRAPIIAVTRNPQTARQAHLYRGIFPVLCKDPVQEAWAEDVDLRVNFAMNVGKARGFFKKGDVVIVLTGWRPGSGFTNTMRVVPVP

SW480 [21] = experiment: Induction of intracellular ROS production in human SW480 cells at 0.2 to 0.6 uM incubated for 48 hrs by DCFH-DA staining based flow cytometry analysis; assay type: functional, cell-based; details: dose 0.2-0.6 µM
HT-29 [22] = experiment: Antitumor activity against human HT-29 cells xenografted in BALB/c mouse assessed as reduction in tumor weight at 15 to 30 mg/kg, ip administered once every two days for 2 weeks by vernier caliper method; assay type: functional, organism-based; details: dose 15-30 mg/kg
SW480 [23] = experiment: Antiproliferative activity against human SW480 cells at 0.1 to 0.4 uM measured after 48 hrs by EdU staining based confocal microscopic analysis; assay type: functional, cell-based; details: dose 0.1-0.4 µM
HT-29 [24] = experiment: Effect on total PKM2 protein expression in nucleus of human HT-29 cells at 0.45 to 1.8 uM after 48 hrs by Western blot analysis; assay type: functional, cell-based; details: dose 0.45-1.8 µM
SW480 [25] = experiment: Cytotoxicity against human SW480 cells assessed as reduction in cell viability incubated for 48 hrs by MTT assay; assay type: functional, cell-based; details: SW480, 48 h
U2OS = experiment: Cytotoxicity against human U2OS cells assessed as reduction in cell viability incubated for 48 hrs by MTT assay; assay type: functional, cell-based
Pyruvate kinase PKM [26] = biological target: T1, Pyruvate kinase PKM; experiment: Activation of PKM2 in human HT-29 cells assessed as increase in cell basal respiration; assay type: cell-based; details: filed as activator
Pyruvate kinase PKM [27] = biological target: T1, Pyruvate kinase PKM; experiment: Inhibition of PKM2/STAT3 in human HT-29 cells assessed as decrease in phosphorylated STAT3 level at 0.45 to 1.8 uM after 48 hrs by Western blot analysis; assay type: cell-based; details: dose 0.45-1.8 µM
HT-29 [28] = experiment: Induction of apoptosis in human HT-29 cells assessed as decrease in caspase-3 expression at 0.45 to 1.8 uM after 48 hrs by Western blotting analysis; assay type: functional, cell-based; details: dose 0.45-1.8 µM
[29] = Selectivity index, ratio of IC50 for human NCM460 cells to IC50 for human SW480 cells
Pyruvate kinase PKM [30] = biological target: T1, Pyruvate kinase PKM; experiment: Inhibition of PKM2/STAT3 in human HT-29 cells assessed as increase in bax protein expression at 0.45 to 1.8 uM incubated for 48 hrs by Western blot analysis; assay type: cell-based; details: dose 0.45-1.8 µM
Pyruvate kinase PKM [31] = biological target: T1, Pyruvate kinase PKM; experiment: Activation of PKM2 in human HT-29 cells assessed as increase in PKM2 tetramer formation by dynamic laser light scattering analysis; assay type: cell-based; details: filed as activator
HepG2 = experiment: Cytotoxicity against human HepG2 cells assessed as reduction in cell viability incubated for 48 hrs by MTT assay; assay type: functional, cell-based; details: HepG2, 48 h
HT-29 [32] = experiment: Induction of apoptosis in human HT-29 cells after 48 hrs by Annexin V-PE and 7-AAD staining based flow cytometric analysis; assay type: functional, cell-based; details: dose 0.45-1.8 µM
Pyruvate kinase PKM [33] = biological target: T1, Pyruvate kinase PKM; experiment: Activation of human PKM2-C424A expressed in Escherichia coli BL21 (DE3) assessed as increase in PKM2-C424A tetramer formation by chemical cross-linking assay
SW480 [34] = experiment: Induction of apoptosis in human SW480 cells after 48 hrs by Annexin V-PE and 7-AAD staining based flow cytometric analysis; assay type: functional, cell-based; details: dose 0.2-0.8 µM
HT-29 [35] = experiment: Effect on total PKM2 protein expression in cytoplasm of human HT-29 cells at 0.45 to 1.8 uM after 48 hrs by Western blot analysis; assay type: functional, cell-based; details: dose 0.45-1.8 µM
Pyruvate kinase PKM [36] = biological target: T1, Pyruvate kinase PKM; experiment: Activation of recombinant human PKM2 at 10 uM incubated 30 mins by fluorescence microplate reader analysis; details: filed as activator
NCM460 = experiment: Cytotoxicity against human NCM460 cells assessed as reduction in cell viability incubated for 48 hrs by MTT assay; assay type: cell-based; details: NCM460, 48 h
Pyruvate kinase PKM [37] = biological target: T1, Pyruvate kinase PKM; experiment: Inhibition of PKM2/STAT3 in human HT-29 cells assessed as reduction in bcl2 protein expression at 0.45 to 1.8 uM incubated for 48 hrs by Western blot analysis; assay type: cell-based; details: dose 0.45-1.8 µM

Pyruvate kinase PKM (Homo sapiens, UniProt P14618, C424A), sequence (P14618 2-531 C424A limits assumed): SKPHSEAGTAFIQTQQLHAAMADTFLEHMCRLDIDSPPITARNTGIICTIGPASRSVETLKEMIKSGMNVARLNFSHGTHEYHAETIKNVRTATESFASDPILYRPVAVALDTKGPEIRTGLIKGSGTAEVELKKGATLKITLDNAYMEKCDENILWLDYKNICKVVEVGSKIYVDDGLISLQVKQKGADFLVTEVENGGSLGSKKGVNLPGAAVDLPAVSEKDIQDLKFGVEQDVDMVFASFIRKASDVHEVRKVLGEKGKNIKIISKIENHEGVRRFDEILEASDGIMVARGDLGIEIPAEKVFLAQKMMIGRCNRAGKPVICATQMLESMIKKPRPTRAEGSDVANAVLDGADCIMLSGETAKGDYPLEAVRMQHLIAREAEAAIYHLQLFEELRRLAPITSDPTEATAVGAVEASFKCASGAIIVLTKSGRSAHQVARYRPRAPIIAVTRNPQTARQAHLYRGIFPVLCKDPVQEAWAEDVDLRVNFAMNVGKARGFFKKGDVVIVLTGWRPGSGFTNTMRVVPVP

pIC50 (A549): 5.78 | Activity (Pyruvate kinase PKM [3]): Active | inhibition (Pyruvate kinase PKM [8]): Active | inhibition (Pyruvate kinase PKM [11]): Active | AC50 (Pyruvate kinase PKM [12]): 100 nM | Activity (Pyruvate kinase PKM [14]): Active | Activity (Pyruvate kinase PKM [17]): Active | inhibition (Pyruvate kinase PKM [18]): Active | Activity (Pyruvate kinase PKM [19]): Active | AC50 (Pyruvate kinase PKM [20]): 86.3 nM | Activity (Pyruvate kinase PKM [26]): Active | inhibition (Pyruvate kinase PKM [27]): Active | inhibition (Pyruvate kinase PKM [30]): Active | Activity (Pyruvate kinase PKM [31]): Active | Activity (Pyruvate kinase PKM [33]): inactive | Activity (Pyruvate kinase PKM [36]): Active | inhibition (Pyruvate kinase PKM [37]): Active
Structure (SMILES): C=C1C(=O)O[C@H]2[C@H]1CC/C(COC(=O)c1ccc3nccc(Br)c3c1)=C/CC[C@@]1(C)O[C@@H]21
inhibition (HT-29 [1]): Dose-Dependent Effect | Activity (HT-29 [2]): Active | Activity (SW480 [4]): Active | Activity (HT-29 [5]): Active | Activity (HT-29 [6]): Active | Activity (HT-29 [7]): Active | pIC50 (HT-29 [9]): 6.18 | inhibition (HT-29 [10]): inactive | Activity (SW480 [13]): Dose-Dependent Effect | Activity (HT-29 [15]): inactive | Activity [16]: Non-Toxic | Activity (SW480 [21]): Active | Activity (HT-29 [22]): Active | Activity (SW480 [23]): Active | Activity (HT-29 [24]): Active | pIC50 (SW480 [25]): 6.66 | pIC50 (U2OS): 5.75 | Activity (HT-29 [28]): Active | Ratio IC50 [29]: 9.18 | pIC50 (HepG2): 5.41 | Activity (HT-29 [32]): Dose-Dependent Effect | Activity (SW480 [34]): Dose-Dependent Effect | Activity (HT-29 [35]): inactive | pIC50 (NCM460): 5.69

Source: ChEMBL document CHEMBL4831557, “Parthenolide Derivatives as PKM2 Activators Showing Potential in Colorectal Cancer” (J Med Chem, 2021)
